Source: PubChem BioAssay (NCI)
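All cell lines were grown in 96-well plates and treated with compound for 48 hours. TGI: total growth inhibition.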

Key:
Assay in all cases: NCI tumour cell line growth inhibition, 48 h
RXF 393 renal = tested on: RXF 393 renal
LOX IMVI melanoma = tested on: LOX IMVI melanoma
HT29 colon = tested on: HT29 colon
OVCAR-5 ovarian = tested on: OVCAR-5 ovarian
DMS 273 small cell lung = tested on: DMS 273 small cell lung
EKVX NSCLC = tested on: EKVX NSCLC
OVCAR-8 ovarian = tested on: OVCAR-8 ovarian
SF-539 CNS = tested on: SF-539 CNS
HOP-18 NSCLC = tested on: HOP-18 NSCLC
SR leukemia = tested on: SR leukemia
NCI-H226 lung = tested on: NCI-H226 lung
M19-MEL melanoma = tested on: M19-MEL melanoma
HL-60(TB) leukemia = tested on: HL-60(TB) leukemia
SF-268 CNS = tested on: SF-268 CNS
786-0 renal = tested on: 786-0 renal
NCI-H23 lung = tested on: NCI-H23 lung
MOLT-4 leukemia = tested on: MOLT-4 leukemia
COLO 205 colon = tested on: COLO 205 colon
HCT-116 colon = tested on: HCT-116 colon
SNB-78 CNS = tested on: SNB-78 CNS
CCRF-CEM leukemia = tested on: CCRF-CEM leukemia
XF 498 CNS = tested on: XF 498 CNS
SK-MEL-28 melanoma = tested on: SK-MEL-28 melanoma
ACHN renal = tested on: ACHN renal
DLD-1 colon = tested on: DLD-1 colon
HCT-15 colon = tested on: HCT-15 colon
OVCAR-4 ovarian = tested on: OVCAR-4 ovarian
UACC-62 melanoma = tested on: UACC-62 melanoma
SK-MEL-5 melanoma = tested on: SK-MEL-5 melanoma
K-562 leukemia = tested on: K-562 leukemia
SK-MEL-2 melanoma = tested on: SK-MEL-2 melanoma
HOP-62 NSCLC = tested on: HOP-62 NSCLC
SW-620 colon = tested on: SW-620 colon
UACC-257 melanoma = tested on: UACC-257 melanoma
MALME-3M melanoma = tested on: MALME-3M melanoma
LXFL 529 NSCLC = tested on: LXFL 529 NSCLC
M14 melanoma = tested on: M14 melanoma
IGROV1 ovarian = tested on: IGROV1 ovarian
A498 renal = tested on: A498 renal
UO-31 renal = tested on: UO-31 renal
CAKI-1 renal = tested on: CAKI-1 renal
NCI-H460 lung = tested on: NCI-H460 lung
U251 CNS = tested on: U251 CNS
OVCAR-3 ovarian = tested on: OVCAR-3 ovarian
HOP-92 NSCLC = tested on: HOP-92 NSCLC
KM20L2 colon = tested on: KM20L2 colon
A549 NSCLC = tested on: A549 NSCLC
KM12 colon = tested on: KM12 colon
SN12C renal = tested on: SN12C renal
NCI-H522 lung = tested on: NCI-H522 lung
SK-OV-3 ovarian = tested on: SK-OV-3 ovarian
DMS 114 small cell lung = tested on: DMS 114 small cell lung
SNB-75 CNS = tested on: SNB-75 CNS
HCC-2998 colon = tested on: HCC-2998 colon
SNB-19 CNS = tested on: SNB-19 CNS
TK-10 renal = tested on: TK-10 renal
SF-295 CNS = tested on: SF-295 CNS
RPMI-8226 leukemia = tested on: RPMI-8226 leukemia
RXF-631 renal = tested on: RXF-631 renal

CC(=O)OC(OC(C)=O)c1ncccc1C(=O)OC(C)C
TGI (RXF 393 renal): > 100 µM
TGI (LOX IMVI melanoma): > 100 µM
TGI (HT29 colon): > 100 µM
TGI (OVCAR-5 ovarian): > 100 µM
TGI (DMS 273 small cell lung): > 100 µM
TGI (EKVX NSCLC): > 100 µM
TGI (OVCAR-8 ovarian): > 100 µM
TGI (SF-539 CNS): > 100 µM
TGI (HOP-18 NSCLC): > 100 µM
TGI (SR leukemia): > 100 µM
TGI (NCI-H226 lung): > 100 µM
TGI (M19-MEL melanoma): > 100 µM
TGI (HL-60(TB) leukemia): 28.9 µM
TGI (SF-268 CNS): > 100 µM
TGI (786-0 renal): > 100 µM
TGI (NCI-H23 lung): > 100 µM
TGI (MOLT-4 leukemia): > 100 µM
TGI (COLO 205 colon): > 100 µM
TGI (HCT-116 colon): > 100 µM
TGI (SNB-78 CNS): > 100 µM
TGI (CCRF-CEM leukemia): 49.1 µM
TGI (XF 498 CNS): > 100 µM
TGI (SK-MEL-28 melanoma): > 100 µM
TGI (ACHN renal): > 100 µM
TGI (DLD-1 colon): > 100 µM
TGI (HCT-15 colon): > 100 µM
TGI (OVCAR-4 ovarian): > 100 µM
TGI (UACC-62 melanoma): > 100 µM
TGI (SK-MEL-5 melanoma): > 100 µM
TGI (K-562 leukemia): > 100 µM
TGI (SK-MEL-2 melanoma): > 100 µM
TGI (HOP-62 NSCLC): > 100 µM
TGI (SW-620 colon): > 100 µM
TGI (UACC-257 melanoma): > 100 µM
TGI (MALME-3M melanoma): > 100 µM
TGI (LXFL 529 NSCLC): > 100 µM
TGI (M14 melanoma): > 100 µM
TGI (IGROV1 ovarian): > 100 µM
TGI (A498 renal): > 100 µM
TGI (UO-31 renal): > 100 µM
TGI (CAKI-1 renal): > 100 µM
TGI (NCI-H460 lung): > 100 µM
TGI (U251 CNS): > 100 µM
TGI (OVCAR-3 ovarian): > 100 µM
TGI (HOP-92 NSCLC): > 100 µM
TGI (KM20L2 colon): > 100 µM
TGI (A549 NSCLC): > 100 µM
TGI (KM12 colon): > 100 µM
TGI (SN12C renal): > 100 µM
TGI (NCI-H522 lung): > 100 µM
TGI (SK-OV-3 ovarian): > 100 µM
TGI (DMS 114 small cell lung): > 100 µM
TGI (SNB-75 CNS): > 100 µM
TGI (HCC-2998 colon): > 100 µM
TGI (SNB-19 CNS): > 100 µM
TGI (TK-10 renal): > 100 µM
TGI (SF-295 CNS): > 100 µM

Cc1cc(C)nc(NS(=O)(=O)c2ccc(Nc3c4ccccc4nc4c(C(=O)N5CCN(CCO)CC5)ccc(Cl)c34)cc2)n1
TGI (RXF 393 renal): > 100 µM
TGI (HT29 colon): > 100 µM
TGI (OVCAR-5 ovarian): > 100 µM
TGI (DMS 273 small cell lung): > 100 µM
TGI (OVCAR-8 ovarian): > 100 µM
TGI (SF-539 CNS): > 100 µM
TGI (NCI-H226 lung): > 100 µM
TGI (M19-MEL melanoma): > 100 µM
TGI (HL-60(TB) leukemia): > 100 µM
TGI (SF-268 CNS): > 100 µM
TGI (786-0 renal): > 100 µM
TGI (NCI-H23 lung): > 100 µM
TGI (MOLT-4 leukemia): > 100 µM
TGI (COLO 205 colon): > 100 µM
TGI (RPMI-8226 leukemia): > 100 µM
TGI (HCT-116 colon): > 100 µM
TGI (SNB-78 CNS): > 100 µM
TGI (CCRF-CEM leukemia): > 100 µM
TGI (SK-MEL-28 melanoma): > 100 µM
TGI (HCT-15 colon): > 100 µM
TGI (OVCAR-4 ovarian): > 100 µM
TGI (UACC-62 melanoma): > 100 µM
TGI (SK-MEL-5 melanoma): > 100 µM
TGI (K-562 leukemia): > 100 µM
TGI (SK-MEL-2 melanoma): > 100 µM
TGI (HOP-62 NSCLC): > 100 µM
TGI (UACC-257 melanoma): > 100 µM
TGI (MALME-3M melanoma): > 100 µM
TGI (M14 melanoma): > 100 µM
TGI (IGROV1 ovarian): > 100 µM
TGI (A498 renal): > 100 µM
TGI (UO-31 renal): > 100 µM
TGI (CAKI-1 renal): > 100 µM
TGI (NCI-H460 lung): > 100 µM
TGI (U251 CNS): > 100 µM
TGI (OVCAR-3 ovarian): > 100 µM
TGI (HOP-92 NSCLC): > 100 µM
TGI (KM20L2 colon): > 100 µM
TGI (A549 NSCLC): > 100 µM
TGI (KM12 colon): > 100 µM
TGI (SN12C renal): > 100 µM
TGI (SK-OV-3 ovarian): > 100 µM
TGI (DMS 114 small cell lung): > 100 µM
TGI (RXF-631 renal): > 100 µM
TGI (SNB-75 CNS): > 100 µM
TGI (HCC-2998 colon): > 100 µM
TGI (SNB-19 CNS): > 100 µM
TGI (TK-10 renal): > 100 µM
TGI (SF-295 CNS): > 100 µM

S=c1nc(COc2ccc(Cl)cc2)[nH][nH]1
TGI (RXF 393 renal): > 100 µM
TGI (LOX IMVI melanoma): > 100 µM
TGI (HT29 colon): > 100 µM
TGI (OVCAR-5 ovarian): > 100 µM
TGI (DMS 273 small cell lung): > 100 µM
TGI (OVCAR-8 ovarian): > 100 µM
TGI (SF-539 CNS): > 100 µM
TGI (NCI-H226 lung): > 100 µM
TGI (M19-MEL melanoma): > 100 µM
TGI (HL-60(TB) leukemia): > 100 µM
TGI (SF-268 CNS): > 100 µM
TGI (786-0 renal): > 100 µM
TGI (NCI-H23 lung): > 100 µM
TGI (MOLT-4 leukemia): > 100 µM
TGI (COLO 205 colon): > 100 µM
TGI (RPMI-8226 leukemia): > 100 µM
TGI (HCT-116 colon): > 100 µM
TGI (SNB-78 CNS): > 100 µM
TGI (CCRF-CEM leukemia): > 100 µM
TGI (SK-MEL-28 melanoma): > 100 µM
TGI (ACHN renal): > 100 µM
TGI (DLD-1 colon): > 100 µM
TGI (HCT-15 colon): > 100 µM
TGI (OVCAR-4 ovarian): > 100 µM
TGI (UACC-62 melanoma): > 100 µM
TGI (SK-MEL-5 melanoma): > 100 µM
TGI (K-562 leukemia): > 100 µM
TGI (SK-MEL-2 melanoma): > 100 µM
TGI (HOP-62 NSCLC): > 100 µM
TGI (SW-620 colon): > 100 µM
TGI (UACC-257 melanoma): > 100 µM
TGI (MALME-3M melanoma): > 100 µM
TGI (LXFL 529 NSCLC): > 100 µM
TGI (M14 melanoma): > 100 µM
TGI (IGROV1 ovarian): > 100 µM
TGI (A498 renal): > 100 µM
TGI (UO-31 renal): > 100 µM
TGI (CAKI-1 renal): > 100 µM
TGI (NCI-H460 lung): > 100 µM
TGI (U251 CNS): > 100 µM
TGI (OVCAR-3 ovarian): > 100 µM
TGI (HOP-92 NSCLC): > 100 µM
TGI (KM20L2 colon): > 100 µM
TGI (A549 NSCLC): > 100 µM
TGI (KM12 colon): > 100 µM
TGI (SN12C renal): > 100 µM
TGI (NCI-H522 lung): > 100 µM
TGI (SK-OV-3 ovarian): > 100 µM
TGI (DMS 114 small cell lung): > 100 µM
TGI (RXF-631 renal): > 100 µM
TGI (SNB-75 CNS): > 100 µM
TGI (HCC-2998 colon): > 100 µM
TGI (SNB-19 CNS): > 100 µM
TGI (TK-10 renal): > 100 µM
TGI (SF-295 CNS): > 100 µM
